This passage reports GI50 results from patent US8940739B2, “Compound of a reverse-turn mimetic and a production method and use therefor” (JW Pharmaceutical Corporation, priority 2010, dated 2015).

For this test, the system named is MV-4-11 (human, Acute Myeloid Leukemia cell line) cells. The test is described as follows: Cell growth inhibition assay, GI50 of MV-4-11. Type of test: cell-based. The settings on record: Homo sapiens, MV4-11, 72 h, MV-4-11 cells. Here is the method: The anti-proliferative activity (cell growth inhibition assay) of the compounds according to the present invention against AML (Acute Myeloid Leukemia) cancer cells was measured. […] The lower the GI50 value, the higher the anti-proliferative activity.
A cell growth Inhibition assay was performed to investigate the rate of inhibition of cell proliferation by the compounds of the present invention. MV-4-11 (human, Acute Myeloid Leukemia cell line) cells were cultured in Iscove's modified Dulbecco's medium (IMDM) including 10% fetal bovine serum (FBS), 1× penicillin/streptomycin (10,000 units/ml Penicillin, […] Streptomycin in 0.85% NaCl). MV-4-11 cells were harvested with the IMDM and 5×10^4 cells/well were transferred to each well of 96-well culture plates (Nunc, #167008).
The compounds of Examples 1 to 5 were exposed to serial dilution and duplicated for each concentration. For the serial dilution, the compounds of the present invention were repeatedly diluted with the same volume of media onto 96-well assay block (costar, #3956). After the dilution, each compound was added to each well.
Also, the background absorbance was measured during the treatment with the test compounds by replacing the test compound with IMDM in the negative control plate. The plates were incubated for three days (72 hours) at 37 in the humidified incubator containing 5% CO2. On the last day, 20 µl of a CellTiter 96 Aqueous One Solution (Promega #G3581) was added to the culture in each well and the plates were incubated for a few hours at 37 in the humidified incubator containing 5% CO2. After the incubation, the absorbance of each cell was measured at 490 nm using an EnVision (Perkinelmer, USA).
The GI50 values were calculated using a Prism 3.0 program.

The GI50 is the concentration that inhibits growth by half. A high value points to less potent growth inhibition. For the molecule `C=CCN1CC(=O)N2[C@@H](Cc3ccc(O)cc3)C(=O)N(Cc3cccc4c(-c5ccc(NC(=O)NC(C)C)nc5)cn(C)c34)C[C@@H]2N1C(=O)NCc1ccccc1` [Compound D-99], it took 2.7 nM to inhibit growth by half (GI50).

`C=CCN1CC(=O)N2C(Cc3ccc(O)cc3)C(=O)N(Cc3cccc4c(C(=O)Nc5ccc(NCCN6CCN(C)CC6)nc5)cn(C)c34)CC2N1C(=O)NCc1ccccc1` (stereo not shown) [Compound G-30] had a GI50 of 5 nM.

On to `C=CCN1CC(=O)N2[C@@H](Cc3ccc(O)cc3)C(=O)N(Cc3cccc4c(C(=O)N5CCN(C(=O)OC(C)(C)C)CC5)cn(C)c34)C[C@@H]2N1C(=O)NCc1ccccc1` [Compound E-1], for which halving of growth (GI50) required 5.8 nM.

Molecule `C=CCN1CC(=O)N2C(CN(Cc3cccc4c(C(=O)Nc5ccc(O)cc5)cn(C)c34)C(=O)[C@@H]2Cc2ccc(O)cc2)N1C(=O)NCc1ccccc1` (stereo partly shown) [Compound G-2] displayed a 50% growth inhibitory concentration (GI50) of 8 nM.

`C=CCN1CC(=O)N2[C@@H](Cc3ccc(O)cc3)C(=O)N(Cc3cccc4c(C(=O)NCCc5cccnc5)cn(C)c34)C[C@@H]2N1C(=O)NCc1ccccc1` [Compound F-52] showed a GI50 of 4.6 nM.

Take `C=CCN1CC(=O)N2[C@@H](Cc3ccc(O)cc3)C(=O)N(Cc3cccc4c(-c5ccc(NC(=O)Nc6ccncn6)cc5)cn(C)c34)C[C@@H]2N1C(=O)NCc1ccccc1` [Compound D-81]: it took 9.9 nM to inhibit growth by half (GI50).

Regarding `C=CCN1CC(=O)N2[C@@H](Cc3ccc(O)cc3)C(=O)N(Cc3cccc4c(-c5ccc(C(=O)Nc6ccc(N7CCNCC7)cc6)cc5)cn(C)c34)C[C@@H]2N1C(=O)NCc1ccccc1` [Compound D-13], the GI50 stood at 1.2 nM.

`C=CCN1CC(=O)N2[C@@H](Cc3ccc(O)cc3)C(=O)N(Cc3cccc4c(-c5ccc(C(=O)NC6CCC(N)CC6)cc5)cn(C)c34)C[C@@H]2N1C(=O)NCc1ccccc1` (stereo partly drawn) [Compound D-30] displayed a GI50 of 1.5 nM.

The molecule `C=CCN1CC(=O)N2[C@@H](Cc3ccc(O)cc3)C(=O)N(Cc3cccc4c(C(=O)NCc5cccc(C)n5)cn(C)c34)C[C@@H]2N1C(=O)NCc1ccccc1` [Compound F-44] displayed a GI50 of 4.5 nM.

`C=CCN1CC(=O)N2[C@@H](Cc3ccc(O)cc3)C(=O)N(Cc3cccc4c(C(=O)NCc5cccc(N6CCOCC6)n5)cn(C)c34)C[C@@H]2N1C(=O)NCc1ccccc1` [Compound F-50]: the GI50 is 1.6 nM.

As for `C=CCN1CC(=O)N2[C@@H](Cc3ccc(O)cc3)C(=O)N(Cc3cccc4c(C(=O)N5CCN(Cc6cccc(OC)c6)CC5)cn(C)c34)C[C@@H]2N1C(=O)NCc1ccccc1` [Compound E-35], the GI50 stood at 5.1 nM.

`C=CCN1CC(=O)N2[C@@H](Cc3ccc(O)cc3)C(=O)N(Cc3cccc4c(-c5ccc(C(=O)NNC)cc5)cn(C)c34)C[C@@H]2N1C(=O)NCc1ccccc1` [Compound D-33] registered a 50% growth inhibitory concentration (GI50) of 1.4 nM.

As to `C=CCN1CC(=O)N2C(CN(Cc3cccc4c(C(=O)Nc5ccc(NCCCO)nc5)cn(C)c34)C(=O)[C@@H]2Cc2ccc(O)cc2)N1C(=O)NCc1ccccc1` (stereo partly shown) [Compound G-19], the GI50 worked out at 9.3 nM.

Molecule `C=CCN1CC(=O)N2[C@@H](Cc3ccc(O)cc3)C(=O)N(Cc3cccc4c(-c5cccc(C(=O)N6CCN(C)CC6)c5)cn(C)c34)C[C@@H]2N1C(=O)NCc1ccccc1` [Compound D-2] gave a GI50 of 1.3 nM.

For `C=CCN1CC(=O)N2[C@@H](Cc3ccc(O)cc3)C(=O)N(Cc3cccc4c(-c5ccc(C(=O)NC6CCN(C(C)C)CC6)o5)cn(C)c34)C[C@@H]2N1C(=O)NCc1ccccc1` [Compound D-104], it took 6.3 nM to inhibit growth by half (GI50).

In turn, `C=CCN1CC(=O)N2C(CN(Cc3cccc4c(C(=O)Nc5ccc(N(C)CCCO)nc5)cn(C)c34)C(=O)[C@@H]2Cc2ccc(O)cc2)N1C(=O)NCc1ccccc1` (stereo partly shown) [Compound G-20] returned a GI50 of 1.7 nM.

As to `C=CCN1CC(=O)N2[C@@H](Cc3ccc(O)cc3)C(=O)N(Cc3cccc4c(-c5cccc(C(=O)N6CCC(O)CC6)c5)cn(C)c34)C[C@@H]2N1C(=O)NCc1ccccc1` [Compound D-6], halving of growth (GI50) required 1.7 nM.

In turn, `C=CCN1CC(=O)N2[C@@H](Cc3ccc(O)cc3)C(=O)N(Cc3cccc4c(C(=O)N(C)CCCN5CCN(C)CC5)cn(C)c34)C[C@@H]2N1C(=O)NCc1ccccc1` [Compound F-31] returned a GI50 of 1.9 nM.

For the molecule `C=CCN1CC(=O)N2[C@@H](Cc3ccc(O)cc3)C(=O)N(Cc3cccc4c(C(=O)N5CCN(C(C)(C)C)CC5)cn(C)c34)C[C@@H]2N1C(=O)NCc1ccccc1` [Compound E-8], the 50% growth inhibitory concentration (GI50) stood at 8.9 nM.

`C=CCN1CC(=O)N2[C@@H](Cc3ccc(O)cc3)C(=O)N(Cc3cccc4c(C(=O)N5CCN(Cc6ccc(C)cc6)CC5)cn(C)c34)C[C@@H]2N1C(=O)NCc1ccccc1` [Compound E-27] showed a GI50 of 13.5 nM.

As to `C=CCN1CC(=O)N2[C@@H](Cc3ccc(O)cc3)C(=O)N(Cc3cccc4c(-c5cccc(C(=O)NCc6ccccc6)c5)cn(C)c34)C[C@@H]2N1C(=O)NCc1ccccc1` [Compound D-28], growth was halved (GI50) at 5.5 nM.

The molecule `C=CCN1CC(=O)N2[C@@H](Cc3ccc(O)cc3)C(=O)N(Cc3cccc4c(C(=O)N(C)Cc5cccc(C)n5)cn(C)c34)C[C@@H]2N1C(=O)NCc1ccccc1` [Compound F-45] had a GI50 of 1.7 nM. This GI50 is about 3.2-fold lower than that of the molecule before.

Turning to `C=CCN1CC(=O)N2[C@@H](Cc3ccc(O)cc3)C(=O)N(Cc3cccc4c(-c5ccc(NC(=O)NC6CCN(C(C)=O)CC6)cc5)cn(C)c34)C[C@@H]2N1C(=O)NCc1ccccc1` [Compound D-84], the GI50 worked out at 1.7 nM.

In the case of `C=CCN1CC(=O)N2[C@@H](Cc3ccc(O)cc3)C(=O)N(Cc3cccc4c(C(=O)NCc5ccccn5)cn(C)c34)C[C@@H]2N1C(=O)NCc1ccccc1` [Compound F-42], the GI50 came out at 9.1 nM.

`C=CCN1CC(=O)N2[C@@H](Cc3ccc(O)cc3)C(=O)N(Cc3cccc4c(C(=O)N5CCN(C6CCCC6)CC5)cn(C)c34)C[C@@H]2N1C(=O)NCc1ccccc1` [Compound E-18] yielded a GI50 of 20.9 nM. Against the preceding molecule, the GI50 is about 2.3-fold higher.

Molecule `C=CCN1CC(=O)N2[C@@H](Cc3ccc(O)cc3)C(=O)N(Cc3cccc4c(-c5cccc(C(=O)NC6CC6)c5)cn(C)c34)C[C@@H]2N1C(=O)NCc1ccccc1` [Compound D-29] gave a GI50 of 1.3 nM.

`C=CCN1CC(=O)N2[C@@H](Cc3ccc(O)cc3)C(=O)N(Cc3cccc4c(-c5ccc(C(=O)NCCN(C)C)cc5)cn(C)c34)C[C@@H]2N1C(=O)NCc1ccccc1` [Compound D-39] came in with a GI50 of 1.2 nM. This GI50 and that of the molecule before are within 1.5-fold of each other.

In turn, `C=CCN1CC(=O)N2C(CN(Cc3cccc4c(C(=O)Nc5ccc(SC)cc5)cn(C)c34)C(=O)[C@@H]2Cc2ccc(O)cc2)N1C(=O)NCc1ccccc1` (stereo partly shown) [Compound G-7] showed a GI50 of 10.5 nM.

As for `C=CCN1CC(=O)N2[C@@H](Cc3ccc(O)cc3)C(=O)N(Cc3cccc4c(C(=O)Nc5ccc(N(C)Cc6cncn6C)nc5)cn(C)c34)C[C@@H]2N1C(=O)NCc1ccccc1` [Compound G-34], the GI50 stood at 1.37 nM.

Consider `C=CCN1CC(=O)N2[C@@H](Cc3ccc(O)cc3)C(=O)N(Cc3cccc4c(C(=O)N5CCN(Cc6cccc(C)n6)CC5)cn(C)c34)C[C@@H]2N1C(=O)NCc1ccccc1` [Compound E-31], for which growth was halved (GI50) at 6 nM.

On to `C=CCN1CC(=O)N2[C@@H](Cc3ccc(O)cc3)C(=O)N(Cc3cccc4c(-c5ccc(NC(=O)N6CCN(C)CC6)cc5)cn(C)c34)C[C@@H]2N1C(=O)NCc1ccccc1` [Compound D-67], for which halving of growth (GI50) required 1.3 nM.

Consider `C=CCN1CC(=O)N2[C@@H](Cc3ccc(O)cc3)C(=O)N(Cc3cccc4c(C(=O)N(C)Cc5cccnc5)cn(C)c34)C[C@@H]2N1C(=O)NCc1ccccc1` [Compound F-41], for which the GI50 was found to be 11.6 nM.

`C=CCN1CC(=O)N2C(CN(Cc3cccc4c(C(=O)Nc5ccc(N6CCN(C)CC6)cc5)cn(C)c34)C(=O)[C@@H]2Cc2ccc(O)cc2)N1C(=O)NCc1ccccc1` (stereo partly shown) [Compound G-40]: it took 1.3 nM to inhibit growth by half (GI50).

`C=CCN1CC(=O)N2[C@@H](Cc3ccc(O)cc3)C(=O)N(Cc3cccc4c(C(=O)N5CCC(NC(=O)OC(C)(C)C)CC5)cn(C)c34)C[C@@H]2N1C(=O)NCc1ccccc1` [Compound E-56] had a GI50 of 3.1 nM.

`C=CCN1CC(=O)N2[C@@H](Cc3ccc(O)cc3)C(=O)N(Cc3cccc4c(-c5ccc(NC(=O)c6ccc(CN)cc6)cc5)cn(C)c34)C[C@@H]2N1C(=O)NCc1ccccc1` [Compound D-53] registered a GI50 of 1.2 nM.

As for `C=CCN1CC(=O)N2[C@@H](Cc3ccc(O)cc3)C(=O)N(Cc3cccc4c(-c5ccc(C(=O)NN(C)C)cc5)cn(C)c34)C[C@@H]2N1C(=O)NCc1ccccc1` [Compound D-36], the GI50 came to 1.2 nM.

Consider `C=CCN1CC(=O)N2[C@@H](Cc3ccc(O)cc3)C(=O)N(Cc3cccc4c(C(=O)N(C)CCCNC(C)C)cn(C)c34)C[C@@H]2N1C(=O)NCc1ccccc1` [Compound F-19], for which the GI50 is 1.5 nM.

Consider `C=CCN1CC(=O)N2[C@@H](Cc3ccc(O)cc3)C(=O)N(Cc3cccc4c(-c5ccc(NC(=O)Nc6ccc(OC)cc6)nc5)cn(C)c34)C[C@@H]2N1C(=O)NCc1ccccc1` [Compound D-86], for which halving of growth (GI50) required 4.9 nM.

`C=CCN1CC(=O)N2[C@@H](Cc3ccc(O)cc3)C(=O)N(Cc3cccc4c(C(=O)N(C)Cc5ccc(N(C)C)cc5)cn(C)c34)C[C@@H]2N1C(=O)NCc1ccccc1` [Compound F-46] showed a GI50 of 1.3 nM. This GI50 is about 3.8-fold lower than that of the molecule before.

`C=CCN1CC(=O)N2[C@@H](Cc3ccc(O)cc3)C(=O)N(Cc3cccc4c(-c5ccc(NC(=O)NCC)nc5)cn(C)c34)C[C@@H]2N1C(=O)NCc1ccccc1` [Compound D-94] had a GI50 of 1.5 nM.
